Laboratory results from patent US20110124644A1, “METHODS OF DIAGNOSING AND CHARACTERIZING CANNABINOID SIGNALING IN CROHN'S DISEASE” (CEDARS-SINAI MEDICAL CENTER, priority 2008, published 2011).

Legend:
[1] = test system: murine model of acute colitis (DSS, C3H/HeJ mice); assay: Acute colitis model: dextran sodium sulfate (DSS) colitis; assay type: in vivo, mouse; details: 3.5% DSS; 1 mg/kg i.p. from two days before DSS, then every other day
Source text: FIG. 11 (a) depicts, in accordance with an embodiment herein, the effect of CB2 agonist on murine model of acute colitis. Groups of 5 wildtype C3H/HeJ mice were challenged with either DSS 3.5% or acidified water and injected intraperitoneally with CB2 agonist (AM1241(AM)) or antagonist (SR144928 (SR)) or vehicle control (DMSO (D) for AM1241, or EtOH (E) for SR144928) and monitored for weight loss. Intestinal sections were scored histologically at day 10. (b) and (c.) depicts the comparison of DSS colitis in CB2−/− and WT mice, with (b) weight loss and (c) histologic scoring. This is representative of three or more independent experiments.
3.5% Dextran sulfate sodium (prepared in acidified drinking water) was obtained from MP Biomedicals, Inc (Solon, Ohio). Acidified drinking water of colitis-induced mice was replaced with DSS solution for a total of eight days. Controls were given standard acidified drinking water. All mice were sacrificed on day 12, at which time the DSS-treated mice had lost approximately 20% of their body weight. Experiments were performed in duplicate, with groups of 6 mice in each treatment arm. AM1241 (Sigma-Aldrich, MO, in DMSO, 1 mg/mL) was suspended in 250 μL sterile 0.9% saline and injected intraperitoneally (i.p.) at a dose of 1 mg/kg beginning two days prior to the administration of DSS (or acidified drinking water in the control group) and then every other day until the mice were euthanized. […]
Colitis was quantified by both weight loss and histology of intestinal sections. […] Each section was then scored by one blinded pathologist using a standard experimental colitis scoring system.
The effect of CB2-specific agonist in the setting of acute colitis was evaluated using dextran sodium sulfate (DSS), an ingested agent which induces acute, non-T cell mediated colitis (weight loss and bloody diarrhea) within three to five days. Mice were pre-treated with AM1241 or vehicle control, and then monitored for the level of acute colitis induced by DSS ingestion. […]

[2] = test system: CB2 receptor; assay: CB2 agonist (AM1241) inhibition of forskolin-stimulated cAMP production in patient lymphoblastoid cell lines, ELISA; assay type: cell-based, human; details: 250 nM AM1241; 25 nM forskolin; Crohn's disease patient LCLs
Description: FIG. 7 depicts, in accordance with an embodiment herein, CB2 receptor protein expression and function. Flow cytometry data derived from staining of 40 Crohn's disease patient lymphoblastoid cell lines with monoclonal CB2 receptor (IgG2A) was generated. LCLs from patients with Crohn's disease were grown in culture and plated 1×10^6 per well on a 96 well plate. These cells were then incubated for 20 minutes with 10 mM IBMX, a phosphodiesterase inhibitor, and washed. Cells were incubated in the presence of various concentrations of forskolin or media control with or without the addition of 250 nM AM1241. Samples were run in triplicate. […] Plates were frozen at −20 degrees and lysates assayed the following day for cAMP concentration using a commercial ELISA kit (R and D) and microwell ELISA plate reader.
A CNR2 candidate gene case-control analysis was performed with 449 patients with Crohn's disease, 215 with ulcerative colitis, and 201 controls. […] EBV immortalized lymphoblastoid cell lines (LCLs) were analyzed for CB2 receptor by flow cytometry, and for CB2 receptor function (Gi-mediated adenylate cyclase inhibition) by CB2 agonist (AM1241) inhibition of forskolin-stimulated cAMP production, measured by ELISA.
To assess the LCL response to CB2 specific agonist, intracellular cAMP was quantified using a standard ELISA kit (R and D Systems). […]

[3] = test system: murine model of immune colitis (Rag1 −/− mice); assay: Immune colitis model: transfer of Gαi2−/− T cells into Rag1 −/− mice; assay type: in vivo, mouse; details: i.p. every other day, vs DMSO vehicle

Compound	DSS colitis severity compared to vehicle control [1]	inhibition of forskolin-stimulated adenylate cyclase-dependent cAMP response [2]	weight loss compared to vehicle control ([3]; Rag1 −/− mice after Gαi2−/− T cell transfer)	quantitative histologic scoring of intestinal inflammation compared to vehicle control ([3]; sacrificed 8 weeks after T cell transfer)
COc1ccc(C(=O)c2c(C)n(CCN3CCOCC3)c3cc(I)ccc23)cc1 [AM630]	reduced DSS colitis severity			
CN1CCCCC1Cn1cc(C(=O)c2cc([N+](=O)[O-])ccc2I)c2ccccc21 (stereo not drawn) [AM1241]	significantly more severe	approximately 55%	lost significantly less weight	dramatically reduced for inflammation
SR144528	ameliorated DSS colitis			
